Series [1] deals with Met and ERK. Kind of series: HGF induced activation of Met and ERK in L3.6pl cells (Western blot). It is filed as cell-based, human. The following applies: L3.6pl cells induced with HGF (FIG. 5A right). On the procedure: (§1) Serum-starved cells (24 hours) were induced with the growth factor HGF (10 ng/mL) at 37° C. for 5 minutes. Where indicated, the cells were treated with peptides (100 ng/ml) prior to induction at 37° C. for 10 minutes (100 ng/mL CD44v6 peptide or control peptide). Following the induction with HGF, cells were washed with ice-cold phosphate-buffered saline (PBS). To detect activated Met and Erk, cells were lysed in sodium dodecyl sulfate (SDS)-sample buffer containing 100 mM dithiothreitol (DTT), boiled and subjected to western blot analysis using antibodies against phospho-Met and ERK. The loading controls were performed on the same blot after stripping (62.5 mM Tris, pH 6.8, 2% SDS, 0.8% DTT) by probing with the Met respectively ERK antibody. Blots were stained using the enhanced chemiluminescence system (Thermo Fisher Scientific, Schwerte, Germany). Bands in western blot analysis were quantified with the program Image J (National Institutes of Health).

The test system of series [2] is L3.6pl cells. Kind of series: Staining of L3.6pl cells with DY681-labeled peptides. It is filed as cell-based, human. The following applies: DY681 labeled peptide. As for the experimental part:
(§2) ASs6 or L3.6pl cells were seeded at 5,000 cells/well of a Lab-TekR Chamber Slide™ (Nunc, Napierville, Ill., USA). On the following day the cells were washed with cold PBS and fixed with 4% Formalin for 30 min at RT. Unspecific binding was blocked with 1% BSA in PBS for 1 hour at RT. The cells were incubated for 1 hour with the DY681-labeled peptides. After three washing steps with PBS the cover slips were mounted with Fluorescence Mounting Medium (Dako, Glostrup, Denmark) and the immunofluorescence was measured by a laser scanning confocal microscope Leica TCS2 SP2 (Exton, Pa., USA) and processed using Leica confocal software. A 20× objective was used for imaging.

For series [3], the system named is L3.6pl tumors. Kind of series: In vivo / ex vivo imaging (Pearl Imager) of mice with L3.6pl tumors. The following applies: for fluorescence / accumulation in the orthotopic L3.6pl tumor in vivo: 20 μg i.v., 24 h after injection. On the procedure:
In vivo imaging of the mice with the L3.6pl tumors was performed using the Pearl™ Imager (LI-COR Biosciences, Bad Homburg, Germany). The system uses two lasers (685 and 785 nm) for excitation and a charge-coupled device detector for signal detection. The laser excitation enables a deep tissue penetration. With the near-infrared detection a high sensitivity due to the reduced tissue auto-fluorescence is achieved. In order to standardize the images we made use of the Pearl Cam Software. The animals were fed with chlorophyll-reduced food to reduce the fluorescence background one week before imaging (Regime 210, safe-diets, Augy, France). Prior to imaging the mice were anesthetized with 2.0% isoflurane. Animals were placed on the heated plate of the imager and continuous delivery of isoflurane was achieved through a nose cone in the imaging drawer. Images were captured at white light, 700 and 800 nm. Animals were imaged prior to i.v. peptide injection and 24 h after injection with either DY681-labeled human v6 peptide or DY681-labeled rat v6 peptide as control. Immediately after each imaging session animals were killed, tumor, liver and spleen isolated and scanned ex vivo at white light, 700 and 800 nm.

Series [4] concerns Met. The following applies: N to A and E to A mutated pentapeptide; cited from earlier work.
The subject of series [5] is Met and ERK. As to the kind of experiment: HGF induced activation of Met and Erk in BSp73ASs6 cells (Western blot). It is filed as cell-based, rat. The following applies: BSp73ASs6 cells induced with HGF in the presence of the labeled peptide (FIG. 3A right). As for the experimental part:
as §1
Rat pancreatic cancer cells BSp73ASs6 (also designated Ass6) were incubated for 10 min at 37° C. with either ctrl-peptides (SEQ ID No.: 15), non-pegylated v6-peptides (SEQ ID No.: 11) and increasing concentrations of the pegylated peptides, namely PEG-rat control peptide and PEG-rat CD44v6 peptide, before induction with HGF (10 ng/ml; 5 min at 37° C.).
Activation of ERK and Met was determined by standard SDS and Western Blotting techniques using a phospho-Met and phospho-Erk specific antibody (phospho-Met clone D16 cell signaling, phospho-Erk p42/44 cell signaling)
ASs6 cells, serum starved for 24 h, were induced with HGF (10 ng/ml) at 37° C. for 5 min. Where indicated, the cells were treated with PEGylated or non-PEGylated peptides before induction at 37° C. for 10 min (150 nM). Cells were washed with phosphate-buffered saline (PBS) and lysed in boiling sodium dodecyl sulfate (SDS)-sample buffer containing 100 mM dithiothreitol (DTT). Subsequently, lysates were subjected to Western blot analysis using antibodies against phosphorylated Mek and Erk (Cell signaling). The Mek and Erk loading control were performed on the same blot, stripped (62.5 mM Tris pH 6.8, 2% SDS, 0.8% DTT) and probed with the Mek and Erk antibodies. Blots were stained using the enhanced chemiluminescence system (Thermo Fisher Scientific).

In series [6] the test system is BSp73ASs6 cells. Kind of series: Staining of fixed BSp73ASs6 cells with DY681-labeled peptides. It is filed as cell-based, rat. The settings on record: DY681-labeled peptide for one hour. On the procedure: as §2
Series [7] deals with BSp73ASs6 tumors. The settings on record: rat.
Procedure: In vivo imaging of the subcutaneously grown BSp73ASs6 tumors in BD10 or BDX rats was performed using the near infrared fluorescence (NIRF)-imaging system Optix MX2 (ART, Montreal, Canada) as described earlier (Napp et al., Int J Cancer (2010), 127:1958-1974). To avoid autofluorescence of fur, rats were shaved around the tumor prior to imaging. Subsequently, animals were anesthetized using 2% isoflurane and gently fixed on the devices' heated plate for the entire time of data acquisition. To reduce fluorescence background, rats were fed with chlorophyll-reduced food (Provimi Kliba AG, Kaiseraugst, Switzerland) for one week prior NIRF imaging. All in vivo analyses were preceded by native scans of animals without any injection of the fluorescent probe. […] The rat 11mer had the sequence [sequence] (SEQ ID No.: 12), the mouse 11mer had the sequence [sequence] (SEQ ID No.: 13) and the human 11mer had the sequence [sequence] (SEQ ID No.: 14). All peptides were labeled with the fluorescent dye DY681. Data were acquired at the indicated time after injection of the peptides. For ex vivo monitoring animals were sacrificed after 24 hrs after peptide injection and tumor and organs of interest were scanned ex vivo using Optix MX2.
DY681 fluorescence was measured using excitation at 670 nm in combination with a 700 nm long-pass emission filter. […] Data sets were analyzed with OptiView (ART).

For “WFGNRWHEGYR [DY681 human v6 peptide, human v6 11mer labeled with DY681]”, in series [1], the “inhibition of Met activation by DY681 labeled peptide” value (from here on “inhibition of Met activation”) is given as “inhibited Met activation in L3.6pl cells”. For the same substance, the “binding to L3.6pl cells in cell culture” value in series [2] is “bound to these cells in cell culture”. Moreover, the “fluorescence / accumulation in the orthotopic L3.6pl tumor in vivo” value in series [3] is on record as “accumulated specifically in the tumor”. Further, the “ex vivo binding to primary tumors, livers” value in series [3] (organs excised 24 h after injection) is “binding not only to primary tumors but also to areas of the liver”.

“A-R-W-H-A (ARWHA) [pentapeptide with N and E mutated to A]”: the Met activation entry in series [4] is on record as “capable of abrogating Met activation”.

Consider “WFQNGWQGKNP [mv6 pep Dy681, mouse v6 11mer labeled with DY681, control, reference compound]”, for which the “inhibition of Met activation” value in series [5] is given as “not the mouse peptide inhibited Met activation”. Further, the “binding to BSp73ASs6 cells in tissue culture” value in series [6] was “not the DY681-labeled mouse v6 peptide bound to BSp73ASs6 cells”.

WFENEWQGKNP [rv6 pep Dy681]: the “inhibition of Met activation” value in series [5] is “inhibited Met activation”. Also, the “binding to BSp73ASs6 cells in tissue culture” value in series [6] is “bound to BSp73ASs6 cells in tissue culture”. The “fluorescence / accumulation in the orthotopic L3.6pl tumor in vivo” value in series [3] is listed as “No fluorescence was detected”. In addition, in series [7], the “fluorescence in excised tumors and lungs ex vivo” value is “could only be detected in tumors and in specific areas of the lungs”.

The values are drawn from patent US9593146B2, “CD44v6-derived peptides for treating metastasizing cancer” (AMCURE GMBH, priority 2012, dated 2017).
